Our source for the IC50 values is patent publication US9029409B2, “Isoxazolines as therapeutic agents” (AbbVie Inc., priority 2011, dated 2015).

Some results are limits rather than exact numbers.

This experiment has as its target T1, recombinant human MMP13 catalytic domain (CD) (Homo sapiens, UniProt P45452).
T1 construct: catalytic domain (CD) construct encompassing residues 20-274 (SWISS-PROT P45452); made in house
Kind of experiment: MMP-13 catalytic domain FRET enzyme assay. Conditions: recombinant human MMP-13 catalytic domain. Format: biochemical. As to the method: A recombinant human MMP13 catalytic domain (CD) construct encompassing residues 20-274 (SWISS-PROT P45452) was generated by synthetic gene methods and bacterial expression. MMP-13 activity assays were performed using the recombinant human MMP-13 CD at a 0.4 nM concentration and the fluorogenic substrate (QXL-520)-K-P-L-A˜Nva-Dap(5-FAM)-A-R-NH2 (Anaspec cat #60554-01, San Jose, Calif.) at a 0.25 μM concentration in assay buffer containing […], pH 7.5, 10 mM CaCl2, 150 mM NaCl, 0.05% Brij 35. The assay is based on the cleavage of this substrate by MMP-13, resulting in decrease of FRET between the donor-acceptor pair and subsequent fluorescence enhancement. The assays were carried out in 384-well plates (Greiner cat #781076, Germany) for 60 min at RT. After the incubation period, the reaction was quenched by the addition of 5 μL of 500 mM EDTA (100 mM final concentration) (Rankem, Cat #E0120, India) mixed well and the rate of substrate hydrolysis was determined by monitoring change in fluorescence at excitation and emission wavelengths of 485 nm and 535 nm respectively. Fluorescence was measured on a Victor V5 plate reader (Perkin Elmer, Turku, Finland). The test compounds used for assessing the potency of inhibition of MMP-13 activity were dissolved in DMSO (final DMSO concentration in the assay was 5%). Selected compounds were also screened against full length MMP13 (R&D Systems (Cat. No. 511-MM-010), Minneapolis, Minn.) at 2 nM concentration using the same fluorogenic substrate mentioned above. The enzyme was activated using 1 m Mp-aminophenylmercuric acetate—APMA (Cat #A-9563, Sigma, Germany).
Data analysis: The percent inhibition of the enzyme activity in presence of test compounds were calculated using the equation, percent (%) Inhibition=100−[(Fi/Fc)*100] where Fc is the fluorescence corresponding to initial enzyme activity and Fi is the fluorescence corresponding to the enzyme activity in presence of inhibitor. The IC50 values were calculated by fitting the dose-response data to a sigmoidal curve fitting equation using Graph Pad prism software (Version 5, La Jolla, Calif.).
MMP13 Catalytic Domain (CD) Potency of the Described Examples Determined Using Time Resolved Fluorescence Resonance Energy Transfer (FRET) Enzyme Assays: […]

On to `COc1ccc(CNC(=O)c2cc(C3=NOC(C)(c4ccc(OCCO)cc4)C3)nc(C)n2)cc1` (stereo not drawn), for which the IC50 is 100 to 1000 nM.

Consider `COc1ccc(CNC(=O)c2cc(C3=NOC(C4CCN(C(C)=O)CC4)C3)nc(C)n2)cc1` (stereo not drawn), for which the concentration for half-maximal inhibition (IC50) lay in the range of 100 to 1000 nM. Next, `COc1cc(CNC(=O)c2cc(C3=NOC(c4ccccn4)C3)nc(C)n2)ccc1F` (stereo not drawn): 10 to 100 nM; `COc1cc(CNC(=O)c2cc(C3=NOC(C4CCC(O)CC4)C3)nc(C)n2)ccc1F` (stereo not drawn): under 10 nM; `COc1cc(CNC(=O)c2cc(C3=NOC(c4cccnc4)C3)nc(C)n2)ccc1F` (stereo not drawn): under 10 nM.

On to `COc1cc(CNC(=O)c2cc(C3=NOC(c4ccc(CO)cc4)C3)nc(C)n2)ccc1F` (stereo not drawn), for which the IC50 is under 10 nM. The figure for `COc1cc(CNC(=O)c2cc(C3=NOC(c4ccc(N5CCC(CO)CC5)cc4)C3)nc(C)n2)ccc1F` (stereo not drawn) is 10 to 100 nM.

As for `COc1cc(CNC(=O)c2cc(C3=NO[C@H]([C@@H]4CO[C@@H](C(=O)O)CO4)C3)nc(C)n2)ccc1F`, the IC50 lay in the range of 10 to 100 nM. Next, `CNC(=O)N[C@H]1CC[C@H](C2CC(c3cc(C(=O)NCc4ccc(F)c(OC)c4)nc(C)n3)=NO2)CC1` (stereo partly drawn): under 10 nM.

As to `COc1cc(CNC(=O)c2cc(C3=NOC([C@H]4CC[C@H](NC(=O)N(C)C)CC4)C3)nc(C)n2)ccc1F` (stereo partly drawn), the IC50 was under 10 nM. Next, `Cc1nc(C(=O)NCc2ccc(Cl)c(Cl)c2)cc(C2=NO[C@H]([C@H]3CO[C@H](CO)CO3)C2)n1`: over 1000 nM; `COc1cc(CNC(=O)c2cc(C3=NOC(c4cnn(CCO)c4)C3)nc(C)n2)ccc1F` (stereo not drawn): over 1000 nM. With `COc1cc(CNC(=O)c2cc(C3=NO[C@H]([C@H]4CO[C@H](CNC(=O)CC#N)CO4)C3)nc(C)n2)ccc1F`, the IC50 is under 10 nM. The figure for `COc1cc(CNC(=O)c2cc(C3=NO[C@H]([C@H]4CO[C@H](CNC(=O)C(C)(C)O)CO4)C3)nc(C)n2)ccc1F` is 10 to 100 nM. Next, `CNC(=O)NC[C@@H]1CO[C@@H]([C@@H]2CC(c3cc(C(=O)NCc4ccc(F)c(OC)c4)nc(C)n3)=NO2)CO1`: 10 to 100 nM; `COc1cc(CNC(=O)c2cc(C3=NO[C@H]([C@H]4CO[C@H](CNC(=O)N(C)C)CO4)C3)nc(C)n2)ccc1F`: 10 to 100 nM. Next, `COc1cc(CNC(=O)c2cc(C3=NOC(C(=O)N4CCCC4)C3)nc(C)n2)ccc1F` (stereo not drawn): over 1000 nM; `COc1cc(CNC(=O)c2cc(C3=NOC([C@H]4CC[C@H](NC(=O)CN(C)C)CC4)C3)nc(C)n2)ccc1F` (stereo partly drawn): 10 to 100 nM; `COc1cc(CNC(=O)c2cc(C3=NOC(c4cnc5[nH]ncc5c4)C3)nc(C)n2)ccc1F` (stereo not drawn): 10 to 100 nM. In the case of `COc1cc(CNC(=O)c2cc(C3=NOC(c4cnc5c(cnn5C)c4)C3)nc(C)n2)ccc1F` (stereo not drawn), the IC50 lay in the range of 10 to 100 nM.

As to `COc1cc(CNC(=O)c2cc(C3=NOC(C(=O)NCCO)C3)nc(C)n2)ccc1F` (stereo not drawn), the half-inhibitory concentration (IC50) was 100 to 1000 nM. The figure for `COc1cc(CNC(=O)c2cc(C3=NOC(C(N)=O)C3)nc(C)n2)ccc1F` (stereo not drawn) is over 1000 nM. For the compound `COc1cc(CNC(=O)c2cc(C3=NO[C@H]([C@H]4CO[C@H](C(C)(C)O)CO4)C3)nc(C)n2)ccc1F`, the IC50 fell in the range of 10 to 100 nM.

In the case of `CNC(=O)[C@@H]1CO[C@@H]([C@@H]2CC(c3cc(C(=O)NCc4ccc(F)c(OC)c4)nc(C)n3)=NO2)CO1`, the IC50 was under 10 nM. Next, `CNC(=O)[C@H]1CC[C@H](C2CC(c3cc(C(=O)NCc4ccc(F)c(OC)c4)nc(C)n3)=NO2)CC1` (stereo partly drawn): under 10 nM; `COc1cc(CNC(=O)c2cc(C3=NOC([C@H]4CC[C@H](C(N)=O)CC4)C3)nc(C)n2)ccc1F` (stereo partly drawn): under 10 nM.

As for `COc1cc(CNC(=O)c2cc(C3=NOC([C@H]4CC[C@H](NC(=O)C(C)(C)O)CC4)C3)nc(C)n2)ccc1F` (stereo partly drawn), the IC50 is 10 to 100 nM. Next, `COc1cc(CNC(=O)c2cc(C3=NOC([C@H]4CC[C@H](NC(=O)[C@H](C)O)CC4)C3)nc(C)n2)ccc1F` (stereo partly drawn): under 10 nM; `COc1cc(CNC(=O)c2cc(C3=NOC(CN4CCC(CO)C4)C3)nc(C)n2)ccc1F` (stereo not drawn): over 1000 nM. Take `COc1cc(CNC(=O)c2cc(C3=NOC(CN4CCN(C(C)=O)CC4)C3)nc(C)n2)ccc1F` (stereo not drawn): the IC50 is over 1000 nM. Consider `COc1cc(CNC(=O)c2cc(C3=NOC(c4ccc(N(C)C)nn4)C3)nc(C)n2)ccc1F` (stereo not drawn), for which the IC50 is over 1000 nM. Next, `COc1cc(CNC(=O)c2cc(C3=NOC(c4ccc(N5CCCC5)nn4)C3)nc(C)n2)ccc1F` (stereo not drawn): over 1000 nM; `COc1cc(CNC(=O)c2cc(C3=NOC([C@H]4CC[C@H](NC(=O)NC(CO)CO)CC4)C3)nc(C)n2)ccc1F` (stereo partly drawn): 10 to 100 nM. Next, `COc1cc(CNC(=O)c2cc(C3=NOC([C@H]4CC[C@H](C(=O)NCCO)CC4)C3)nc(C)n2)ccc1F` (stereo partly drawn): under 10 nM; `COc1cc(CNC(=O)c2cc(C3=NOC([C@H]4CC[C@H](NC(=O)N(C)CC(O)CO)CC4)C3)nc(C)n2)ccc1F` (stereo partly drawn): under 10 nM. Next, `CC(=O)N[C@H]1CC[C@H](C2CC(c3cc(C(=O)NCc4ccc(F)c(C)c4)nc(C)n3)=NO2)CC1` (stereo partly drawn): under 10 nM; `Cc1nc(C(=O)NCc2ccc(F)c(C)c2)cc(C2=NOC(c3ccc(C#N)nn3)C2)n1` (stereo not drawn): under 10 nM; `CNCC(C)N[C@H]1CC[C@H](C2CC(c3cc(C(=O)NCc4ccc(F)c(OC)c4)nc(C)n3)=NO2)CC1` (stereo partly drawn): 10 to 100 nM. With `Cc1nc(C(=O)NCc2ccc(F)c(C)c2)cc(C2=NO[C@H]([C@H]3CO[C@H](CS(C)(=O)=O)CO3)C2)n1`, the IC50 is under 10 nM. For the compound `CC(=O)NC[C@@H]1CO[C@@H]([C@@H]2CC(c3cc(C(=O)NCc4ccc(F)c(C)c4)nc(C)n3)=NO2)CO1`, the IC50 is under 10 nM. The figure for `CC(=O)NC[C@@H]1CO[C@@H]([C@@H]2CC(c3cc(C(=O)NCc4ccc(F)c(Cl)c4)nc(C)n3)=NO2)CO1` is under 10 nM; for `Cc1nc(C(=O)NCc2ccc(F)c(Cl)c2)cc(C2=NO[C@H]([C@H]3CO[C@H](CS(C)(=O)=O)CO3)C2)n1` it is under 10 nM; for `Cc1cccc(CNC(=O)c2cc(C3=NO[C@H]([C@H]4CO[C@H](CO)CO4)C3)nc(C)n2)c1` it is over 1000 nM.

For the compound `Cc1cccc(CNC(=O)c2cc(C3=NO[C@@H]([C@H]4CO[C@H](CO)CO4)C3)nc(C)n2)c1`, the IC50 is over 1000 nM. As to `Cc1nc(C(=O)NCc2ccc(F)cc2)cc(C2=NOC(c3ccc(C#N)nn3)C2)n1` (stereo not drawn), the half-maximal inhibitory concentration (IC50) is 10 to 100 nM. As for `Cc1nc(C(=O)NCc2ccc(F)cc2)cc(C2=NOC(c3ccc(=O)n(C)c3)C2)n1` (stereo not drawn), the IC50 was in the range of 10 to 100 nM.

Turning to `COc1cc(CNC(=O)c2cc(C3=NOC(c4ccc(=O)n(CCO)c4)C3)nc(C)n2)ccc1F` (stereo not drawn), the IC50 lay in the range of 10 to 100 nM. Consider `Cc1nc(C(=O)NCc2ccc(F)c(Cl)c2)cc(C2=NOC(c3ccc(=O)n(C)c3)C2)n1` (stereo not drawn), for which the IC50 was under 10 nM.

Take `Cc1nc(C(=O)NCc2ccc(F)c(F)c2)cc(C2=NOC(c3ccc(=O)n(C)c3)C2)n1` (stereo not drawn): the IC50 lay within 10 to 100 nM. Next, `Cc1nc(C(=O)NCc2ccc(F)c(F)c2)cc(C2=NOC(c3ccc(C#N)nn3)C2)n1` (stereo not drawn): 10 to 100 nM; `Cc1nc(C(=O)NCc2ccc(F)c(Cl)c2)cc(C2=NOC(c3ccc(C#N)nn3)C2)n1` (stereo not drawn): 10 to 100 nM; `CC(=O)N[C@H]1CC[C@H](C2CC(c3cc(C(=O)NCc4ccc(F)c(Cl)c4)nc(C)n3)=NO2)CC1` (stereo partly drawn): under 10 nM. Next, `CC(=O)N[C@H]1CC[C@H](C2CC(c3cc(C(=O)NCc4ccc(F)cc4)nc(C)n3)=NO2)CC1` (stereo partly drawn): 10 to 100 nM; `CC(=O)N[C@H]1CC[C@H](C2CC(c3cc(C(=O)NCc4ccc(F)c(F)c4)nc(C)n3)=NO2)CC1` (stereo partly drawn): 10 to 100 nM; `Cc1nc(C(=O)NCc2ccc3c(c2)CCO3)cc(C2=NO[C@H]([C@H]3CO[C@H](CO)CO3)C2)n1`: 10 to 100 nM.

As to `Cc1nc(C(=O)NCc2cccc(F)c2)cc(C2=NO[C@H]([C@H]3CO[C@H](CO)CO3)C2)n1`, the IC50 was over 1000 nM. The figure for `Cc1nc(C(=O)NCc2cccc(F)c2)cc(C2=NO[C@@H]([C@H]3CO[C@H](CO)CO3)C2)n1` is over 1000 nM.

For `Cc1nc(C(=O)NCc2ccc3oc(C)nc3c2)cc(C2=NO[C@H]([C@H]3CO[C@H](CO)CO3)C2)n1`, the IC50 fell in the range of 10 to 100 nM.

Consider `Cc1nc(C(=O)NCc2ccc3oc(C)nc3c2)cc(C2=NO[C@@H]([C@H]3CO[C@H](CO)CO3)C2)n1`, for which the IC50 is over 1000 nM. The figure for `COC[C@@H]1CO[C@@H]([C@@H]2CC(c3cc(C(=O)NCc4ccc(F)c(OC)c4)nc(C)n3)=NO2)CO1` is 10 to 100 nM.

In general, IC50 refers to the midpoint of a concentration-inhibition curve.
